What was measured:
PA 101243 = experiment: Checkerboard combination study / MIC; format: cell-based, Pseudomonas aeruginosa; conditions: PA 101243; for MICCombination (antibiotic): MIC of antibiotic combined with compound 2; for FICI: antibiotic + compound 2; for MICAntibiotic: antibiotic alone
PA 259 = experiment: Checkerboard combination study / MIC; format: cell-based, Pseudomonas aeruginosa; conditions: for MICCombination (antibiotic): MIC of antibiotic combined with compound 2; for FICI: antibiotic + compound 2; for MICAntibiotic: antibiotic alone
PA 114228 = experiment: Checkerboard combination study / MIC; format: cell-based, Pseudomonas aeruginosa; conditions: for MICCombination (antibiotic): MIC of antibiotic combined with compound 2; for FICI: antibiotic + compound 2; for MICAntibiotic: antibiotic alone
[1] = test system: MDR/XDR P. aeruginosa clinical isolates; experiment: MIC and checkerboard, panel of clinical isolates; format: cell-based, Pseudomonas aeruginosa; conditions: antibiotic + compound 2 (8.7 μM); resistant P. aeruginosa isolates
PA 101885 = experiment: Checkerboard combination study / MIC; format: cell-based, Pseudomonas aeruginosa; conditions: for MICCombination (antibiotic): MIC of antibiotic combined with compound 2; for FICI: antibiotic + compound 2; for MICAntibiotic: antibiotic alone
PAO750 = format: cell-based, Pseudomonas aeruginosa; conditions: for MIC of antibiotic alone in PAO750: PAO750 efflux-deficient
Description: (§1) PAO200 is a tnexA-rnexB-oprM deletion strain while PAO750 lacks five important RND pumps (McxAB-OprM, MexCD-OprJ, MexEF-OprN, Mex JK, and MexXY) and the outer membrane protein OpmH (46, 47). Some of these pumps are homologues of broad substrate specificities that extrude different classes of antimicrobial agents and confer resistance on P. aeruginosa (48).
(§2) Antimicrobial Susceptibility Assay. The in vitro antimicrobial activity of all compounds/antibiotics against a panel of bacteria was evaluated by microbroth dilution method in accordance with the Clinical and Laboratory Standards Institute (CLSI) guidelines. Overnight grown bacterial cultures were diluted in saline to achieve a 0.5 McFarland turbidity, followed by 1:50 dilution in Mueller-Hinton broth (MHB) for inoculation to a final concentration of approximately 5×10^5CFU/mL. The antimicrobial agents were 2-fold serially diluted in MHB in a 96-well plate and incubated at 37° C. with equal volumes of inoculum for 18 h. The lowest concentration that prevented the visible growth of bacteria was defined as the MIC for each antimicrobial agent. The broth with or without bacterial cells was used as positive or negative control, respectively.
(§3) Checkerboard Assay. Combination studies with different antibiotics were performed in 96-well plates as previously described (22). Briefly, the antibiotic of interest was serially diluted in MHB along the abscissa while the adjuvant (newly synthesized conjugates) was serially diluted in MHB along the ordinate. This creates a 10×7 matrix wherein each well consists of a combination of different antibiotic and adjuvant concentrations. Overnight grown bacterial cultures were diluted in saline to achieve a 0.5 McFarland turbidity, followed by 1:50 dilution in Mueller-Hinton broth (MHB) for inoculation to a final concentration of approximately 5×10^5CFU/mL. Equal volume of this bacterial culture was then added to each well and incubated at 37° C. for 18 h. After incubation, the plates were read on EMax® Plus microplate reader (Molecular Devices, Sunnyvale, Calif., USA) at 590 nm. MIC was recorded as wells with the lowest concentration of drugs with no bacterial growth. The fractional inhibitory concentration (FIC) for each antibiotic was calculated by dividing the MIC of the antibiotic in the presence of adjuvant by the MIC of the antibiotic alone. Similarly, the FIC of adjuvant was calculated by dividing the MIC of the adjuvant in the presence of antibiotic by the MIC of the adjuvant alone. FIC index is the sum of both FICs. FIC indices of <0.5 were deemed synergistic; 0.5-4, no interaction; and >4, antagonistic.

PAO200 = format: cell-based, Pseudomonas aeruginosa; conditions: for MIC of antibiotic alone in PAO200: PAO200 efflux-deficient
Description: as §1, §2, §3

PA 260 = experiment: Checkerboard combination study / MIC; format: cell-based, Pseudomonas aeruginosa; conditions: for MICCombination (antibiotic): MIC of antibiotic combined with compound 2; for FICI: antibiotic + compound 2; for MICAntibiotic: antibiotic alone; for FICAntibiotic: with compound 2
PA 262 = experiment: Checkerboard combination study / MIC; format: cell-based, Pseudomonas aeruginosa; conditions: for MICCombination (antibiotic): MIC of antibiotic combined with compound 2; for FICI: antibiotic + compound 2; for MICAntibiotic: antibiotic alone; for FICAntibiotic: with compound 2
[2] = test system: Galleria mellonella larvae; experiment: Galleria mellonella tolerability study; conditions: for survival of larvae: 100 mg/kg and 200 mg/kg injected alone, after 48 h
Experimental: In vitro and in vivo discordances have been observed in antimicrobial chemotherapy, thus, therapeutic efficacy may not necessarily be reliably extrapolated based on in vitro data alone. […] Colistin (100 mg/kg), an antibiotic well known for its toxicity towards eukaryotes, served as a positive control for this experiment while PBS served as negative control. […] Survivability was scored for a total of 4 days.
In vivo larvae-infection model. In vivo synergistic effects were determined using Galleria mellonella infection model, as previously described (20). Briefly, worms were purchased from The Worm Lady® Live Feeder (ON, Canada), stored in their natural habitat at 16° C., and used within 10 days of delivery. The worms (average weight of 250 mg) were used for tolerability and efficacy studies. Tolerability study was performed by injecting 10 μL of antimicrobial agents only at concentrations equivalent to 100 mg/kg or 200 mg/kg. The worms (ten in each group) were incubated at 37° C. and monitored for 96 h. […] Overnight grown culture of respective MDR P. aeruginosa isolate was standardized to 0.5 McFarland standard and diluted in PBS to a final concentration of […]. 10 μL of this solution (5 CFU) was injected into each worm and incubated for 3 h at 37° C. […] Worms treated with 10 μL PBS or high concentrations of test antibiotics served as negative and positive control, respectively. The worms were incubated at 37° C. in Petri dishes lined with filter paper and scored for survivability every 6 h for up to 48 h. This experiment was repeated to give a total of thirty worms (n=30) in each case. Survival data curves were plotted using Kaplan-Meier survival analysis.

Structure (SMILES) | MICCombination (antibiotic) (PA 101243) [µg/mL] | FICI (PA 101243) | MICAntibiotic (PA 101243) [µg/mL] | MICCombination (antibiotic) (PA 259) [µg/mL] | FICI (PA 259) | MICAntibiotic (PA 259) [µg/mL] | MICCombination (antibiotic) (PA 114228) [µg/mL] | FICI (PA 114228) | MICAntibiotic (PA 114228) [µg/mL] | resistant isolates reaching CLSI clinical breakpoint [1] | MICCombination (antibiotic) (PA 101885) [µg/mL] | FICI (PA 101885) | MICAntibiotic (PA 101885) [µg/mL] | MIC of antibiotic alone in PAO750 (PAO750) [µg/mL] | MIC of antibiotic alone in PAO200 (PAO200) [µg/mL] | MICCombination (antibiotic) (PA 260) [µg/mL] | FICI (PA 260) | MICAntibiotic (PA 260) [µg/mL] | FICAntibiotic (PA 260) | MICCombination (antibiotic) (PA 262) [µg/mL] | also measured
CC(C)(O/N=C(\C(=O)N[C@@H]1C(=O)N2C(C(=O)[O-])=C(C[n+]3ccccc3)CS[C@H]12)c1csc(N)n1)C(=O)O [Ceftazidime] | 8 | <0.13 | 64 | 64 | <0.19 | 512 | 1 | <0.19 | 8 | three out of six | 1 | <0.16 | 8 | 1 | 2 | 16 | <0.52 | 32 | 0.500 | 4 | FICI (PA 262): <0.31; MICAntibiotic (PA 262): 16 µg/mL; FICAntibiotic (PA 262): 0.250; survival of larvae [2]: 100%
C[C@@H](O)[C@H]1C(=O)N2C(C(=O)O)=C(S[C@@H]3CN[C@H](C(=O)N(C)C)C3)[C@H](C)[C@H]12 [Meropenem] | 2 | <0.25 | 8 | 256 | <0.31 | 1024 | 2 | <0.28 | 8 | eight out of nine | 0.5 | <0.16 | 4 | 1 | 0.25 | 1 | <0.16 | 8 | 0.125 | 2 | FICAntibiotic (PA 101243; with compound 2): 0.250; FICAntibiotic (PA 259; with compound 2): 0.250; FICAntibiotic (PA 114228; with compound 2): 0.250; FICAntibiotic (PA 101885; with compound 2): 0.125; MIC of antibiotic + Compound 2 in PAO750 (PAO750; + compound 2 ≤8.7 μM, PAO750): 0.25 µg/mL; fold change of MIC + Compound 2 in PAO750 (PAO750; + compound 2 ≤8.7 μM, PAO750): 4; MIC of antibiotic + Compound 2 in PAO200 (PAO200; + compound 2 ≤8.7 μM, PAO200): 0.063 µg/mL; fold change of MIC + Compound 2 in PAO200 (PAO200; + compound 2 ≤8.7 μM, PAO200): 4; FICI (PA 262): <0.13; MICAntibiotic (PA 262): 32 µg/mL; FICAntibiotic (PA 262): 0.063; survival of larvae [2]: 100%; dose tolerated by larvae ([2]; Galleria mellonella, in vivo, 96 h): up to 200 mg/kg

Reference: patent US20210290648A1, “Potentiation of B-Lactam Antibiotics and B-Lactam/B-Lactamase Inhibitor Combinations Against Multidrug and Extensively Drug-Resistant Pseudomonas Aeruginosa Using Non-Ribosomal Tobramycin-Cyclam Conjugates” (University of Manitoba, priority 2018, published 2021)
